The values below come from ChEMBL document CHEMBL5465560, “Selectivity Literature for EUbOPEN Chemogenomic Library” (2024).

Experiment [1] concerns the target Ribosomal protein S6 kinase alpha-6 (Homo sapiens, UniProt Q9UK32). The experiment can be described thus: Selectivity interaction (KinomeScan (DiscoverX)) EUB0001079a RPS6KA6. To be noted: at 1 µM.
Experiment [2] deals with Casein kinase I isoform delta (Homo sapiens, UniProt P48730). The experiment can be described thus: Selectivity interaction (ActivX KiNativ screen (kinase selectivity in THP-1 cell lysates)) EUB0000639a CSNK1D. The class given is subcellular. The conditions noted are these: lysate.
For experiment [3], the target named is T1, Tyrosine-protein kinase Tec (Homo sapiens) (UniProt P42680).
T1 sequence (whole entry): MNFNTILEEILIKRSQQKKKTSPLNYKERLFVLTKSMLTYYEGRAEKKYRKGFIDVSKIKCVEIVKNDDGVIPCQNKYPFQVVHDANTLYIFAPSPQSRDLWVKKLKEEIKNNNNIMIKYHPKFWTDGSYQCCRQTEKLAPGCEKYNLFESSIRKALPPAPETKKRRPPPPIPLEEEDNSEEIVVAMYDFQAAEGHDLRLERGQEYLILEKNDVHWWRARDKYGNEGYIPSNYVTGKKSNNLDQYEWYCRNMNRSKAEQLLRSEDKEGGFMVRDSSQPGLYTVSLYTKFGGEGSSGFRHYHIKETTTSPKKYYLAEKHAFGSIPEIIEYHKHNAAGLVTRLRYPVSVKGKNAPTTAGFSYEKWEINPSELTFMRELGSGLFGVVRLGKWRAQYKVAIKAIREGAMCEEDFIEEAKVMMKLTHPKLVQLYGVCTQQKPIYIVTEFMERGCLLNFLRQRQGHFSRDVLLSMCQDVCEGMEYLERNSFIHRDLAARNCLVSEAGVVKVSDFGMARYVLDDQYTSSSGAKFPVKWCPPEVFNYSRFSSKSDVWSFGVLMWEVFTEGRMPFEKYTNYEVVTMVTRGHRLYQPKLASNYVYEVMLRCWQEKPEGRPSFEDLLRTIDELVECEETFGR
The experiment is described as follows: Selectivity interaction (ActivX KiNativ screen (kinase selectivity in THP-1 cell lysates)) EUB0000639a TEC. It is filed as subcellular. The conditions noted are these: lysate, at 0.01 µM.

In experiment [4] the target is T2, Inhibitor of nuclear factor kappa-B kinase subunit alpha (Homo sapiens) (UniProt O15111).
T2 sequence (whole entry): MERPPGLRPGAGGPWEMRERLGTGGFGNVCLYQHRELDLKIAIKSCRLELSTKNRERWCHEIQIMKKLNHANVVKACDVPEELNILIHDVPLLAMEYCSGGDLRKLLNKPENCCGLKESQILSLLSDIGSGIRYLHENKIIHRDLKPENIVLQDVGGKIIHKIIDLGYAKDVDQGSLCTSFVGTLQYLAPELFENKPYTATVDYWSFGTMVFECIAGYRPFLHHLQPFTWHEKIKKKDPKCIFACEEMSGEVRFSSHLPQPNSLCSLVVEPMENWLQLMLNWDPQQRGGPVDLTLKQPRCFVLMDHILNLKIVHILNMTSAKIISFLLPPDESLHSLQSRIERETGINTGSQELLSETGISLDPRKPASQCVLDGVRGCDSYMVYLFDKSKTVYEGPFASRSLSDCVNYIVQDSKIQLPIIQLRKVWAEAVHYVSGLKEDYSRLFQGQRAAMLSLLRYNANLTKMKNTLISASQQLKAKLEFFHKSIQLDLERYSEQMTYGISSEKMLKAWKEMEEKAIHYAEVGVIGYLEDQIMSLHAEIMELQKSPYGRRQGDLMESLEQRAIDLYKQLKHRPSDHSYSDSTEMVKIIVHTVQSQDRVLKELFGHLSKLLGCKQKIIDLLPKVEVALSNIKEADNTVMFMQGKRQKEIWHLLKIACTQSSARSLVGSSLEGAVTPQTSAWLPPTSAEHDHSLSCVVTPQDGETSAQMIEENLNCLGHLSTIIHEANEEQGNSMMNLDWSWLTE

Experiment [5] has as its target T3, Ephrin type-A receptor 1 (Homo sapiens) (UniProt P21709).
T3 sequence (whole entry): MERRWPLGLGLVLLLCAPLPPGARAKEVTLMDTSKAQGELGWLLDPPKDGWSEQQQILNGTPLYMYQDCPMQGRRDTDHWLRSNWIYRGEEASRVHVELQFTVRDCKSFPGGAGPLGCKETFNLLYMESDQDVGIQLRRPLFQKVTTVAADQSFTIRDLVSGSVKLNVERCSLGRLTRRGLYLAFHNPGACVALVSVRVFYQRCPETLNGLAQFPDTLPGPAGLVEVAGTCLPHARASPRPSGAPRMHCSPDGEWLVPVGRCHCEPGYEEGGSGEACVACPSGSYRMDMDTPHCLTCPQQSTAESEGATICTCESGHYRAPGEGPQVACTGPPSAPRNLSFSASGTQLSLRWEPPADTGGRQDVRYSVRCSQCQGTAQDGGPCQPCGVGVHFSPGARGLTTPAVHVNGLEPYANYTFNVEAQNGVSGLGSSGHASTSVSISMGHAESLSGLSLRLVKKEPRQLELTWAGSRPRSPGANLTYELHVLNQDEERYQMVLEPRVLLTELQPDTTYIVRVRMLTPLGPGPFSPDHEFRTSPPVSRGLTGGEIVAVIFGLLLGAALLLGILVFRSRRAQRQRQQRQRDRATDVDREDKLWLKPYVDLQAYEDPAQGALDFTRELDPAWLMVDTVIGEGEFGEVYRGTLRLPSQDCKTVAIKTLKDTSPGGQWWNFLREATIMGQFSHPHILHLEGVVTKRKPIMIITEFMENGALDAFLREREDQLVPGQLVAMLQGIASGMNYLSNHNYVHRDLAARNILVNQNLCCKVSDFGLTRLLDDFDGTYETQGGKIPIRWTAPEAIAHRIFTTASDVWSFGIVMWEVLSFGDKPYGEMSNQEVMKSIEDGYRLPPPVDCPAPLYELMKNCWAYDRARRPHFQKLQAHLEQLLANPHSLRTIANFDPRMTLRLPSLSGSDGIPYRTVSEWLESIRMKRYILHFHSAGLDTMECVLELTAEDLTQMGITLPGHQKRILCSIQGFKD
The experiment can be described thus: Selectivity interaction (KinomeScan (DiscoverX)) EUB0001049a EPHA1. To be noted: at 1 µM.

Experiment [6] has as its target Phosphatidylinositol 4-kinase beta (Homo sapiens, UniProt Q9UBF8). The experiment is described as follows: Selectivity interaction (KinomeScan (DiscoverX)) EUB0000045b PI4KB.

Casein kinase I isoform delta, sequence (P48730 whole entry, looked up, canonical isoform): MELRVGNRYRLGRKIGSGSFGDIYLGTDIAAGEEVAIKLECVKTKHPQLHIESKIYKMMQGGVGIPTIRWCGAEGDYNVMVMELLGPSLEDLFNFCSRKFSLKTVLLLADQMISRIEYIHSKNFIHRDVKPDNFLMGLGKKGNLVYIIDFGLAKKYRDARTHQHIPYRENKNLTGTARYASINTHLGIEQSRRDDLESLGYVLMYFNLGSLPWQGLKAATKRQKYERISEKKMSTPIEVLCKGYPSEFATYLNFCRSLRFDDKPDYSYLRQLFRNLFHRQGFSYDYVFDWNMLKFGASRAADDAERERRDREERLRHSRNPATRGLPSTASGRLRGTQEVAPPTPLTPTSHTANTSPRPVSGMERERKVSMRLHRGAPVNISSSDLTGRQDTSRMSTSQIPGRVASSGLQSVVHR
Phosphatidylinositol 4-kinase beta, sequence (Q9UBF8 2-816 limits assumed): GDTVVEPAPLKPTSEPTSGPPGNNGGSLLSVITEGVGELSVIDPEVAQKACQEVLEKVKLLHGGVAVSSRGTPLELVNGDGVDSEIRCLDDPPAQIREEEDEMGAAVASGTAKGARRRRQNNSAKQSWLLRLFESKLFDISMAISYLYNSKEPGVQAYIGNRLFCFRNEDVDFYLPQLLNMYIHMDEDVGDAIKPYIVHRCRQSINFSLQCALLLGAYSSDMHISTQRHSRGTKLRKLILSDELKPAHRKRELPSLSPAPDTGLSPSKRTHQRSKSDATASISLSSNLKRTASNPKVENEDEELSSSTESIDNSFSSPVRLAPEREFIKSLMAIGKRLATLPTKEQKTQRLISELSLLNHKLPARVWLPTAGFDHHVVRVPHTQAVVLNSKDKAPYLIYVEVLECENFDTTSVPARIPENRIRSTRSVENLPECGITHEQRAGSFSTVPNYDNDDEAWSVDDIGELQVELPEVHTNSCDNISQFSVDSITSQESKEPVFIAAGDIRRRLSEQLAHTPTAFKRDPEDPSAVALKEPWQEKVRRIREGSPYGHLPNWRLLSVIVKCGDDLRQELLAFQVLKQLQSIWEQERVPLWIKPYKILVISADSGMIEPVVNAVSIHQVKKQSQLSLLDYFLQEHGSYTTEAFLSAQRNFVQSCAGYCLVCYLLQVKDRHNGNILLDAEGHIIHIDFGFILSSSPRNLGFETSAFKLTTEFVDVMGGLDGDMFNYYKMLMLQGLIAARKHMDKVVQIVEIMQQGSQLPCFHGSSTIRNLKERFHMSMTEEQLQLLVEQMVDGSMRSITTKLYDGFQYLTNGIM
Ribosomal protein S6 kinase alpha-6, sequence (Q9UK32 whole entry, canonical isoform): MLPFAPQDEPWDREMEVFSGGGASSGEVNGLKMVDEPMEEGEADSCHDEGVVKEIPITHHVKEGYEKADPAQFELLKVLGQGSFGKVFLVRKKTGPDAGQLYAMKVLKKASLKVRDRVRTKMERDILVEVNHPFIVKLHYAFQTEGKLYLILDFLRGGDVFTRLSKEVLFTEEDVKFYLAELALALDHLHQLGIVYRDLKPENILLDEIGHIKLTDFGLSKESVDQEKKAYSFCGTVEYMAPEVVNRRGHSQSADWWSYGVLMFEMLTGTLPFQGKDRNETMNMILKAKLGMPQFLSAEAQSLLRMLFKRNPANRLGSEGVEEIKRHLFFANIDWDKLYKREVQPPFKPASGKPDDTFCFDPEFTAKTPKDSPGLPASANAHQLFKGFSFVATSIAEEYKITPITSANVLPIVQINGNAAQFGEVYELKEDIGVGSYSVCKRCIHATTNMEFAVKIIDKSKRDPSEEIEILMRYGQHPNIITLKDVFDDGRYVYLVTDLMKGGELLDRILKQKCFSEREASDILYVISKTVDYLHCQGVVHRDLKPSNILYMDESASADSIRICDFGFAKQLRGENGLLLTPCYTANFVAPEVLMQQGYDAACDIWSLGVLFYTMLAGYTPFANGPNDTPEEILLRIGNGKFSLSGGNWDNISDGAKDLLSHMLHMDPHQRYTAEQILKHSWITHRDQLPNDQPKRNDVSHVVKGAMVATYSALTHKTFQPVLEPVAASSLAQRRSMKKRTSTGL

Turning to `Nc1cnc(N2CCc3cc(S(=O)(=O)Nc4c(F)cc(Cl)cc4F)cc(N4CCCC4=O)c32)nc1` [TP-020n], in experiment [1], the % of control amounted to 86%.

Take `CC[C@@H]1[C@H](F)C(=O)N[C@@H]1COc1nccc2cc(C(N)=O)c(OC)cc12` [ZIMLOVISERTIB]: the % of inhibition in experiment [2] (at 0.01 µM) was -6.6%; in experiment [2] (at 0.04 µM) it was 20.3%; in experiment [2] (at 0.2 µM) it was 53%; in experiment [2] (at 1 µM), 77.8%; in experiment [2] (at 5 µM), 94.8%; in experiment [3], -72.2%.

`Cc1cnc(Nc2ccc(F)cc2Cl)nc1-c1c[nH]c(C(=O)N[C@H](CO)c2cccc(Cl)c2)c1`: in experiment [4], the % of inhibition amounted to 0%.

As for `COc1cc(Nc2nc(C)cc(-c3cnn4nc(OC)ccc34)n2)cc(C(F)(F)F)c1`, in experiment [5], the % of control amounted to 93%.

For the compound `C=CC(=O)Nc1cc(-n2c(=O)ccc3cnc4ccc(-c5ccc(NS(C)(=O)=O)cc5)cc4c32)ccc1C`, the % of control is 79% in experiment [6] (at 1 µM) and 20% in experiment [6] (at 10 µM).
